Data taken from patent publication US11254668B2, “Pyrazolo[1,5-A]pyrazin-4-yl and related derivatives” (Pfizer Inc., priority 2017, dated 2022).
Read-outs that look alike come from different tables or passages of the source.

Assays:
Assay type in all cases: biochemical
TYK2 = TYK2 (Homo sapiens (Human), UniProt P29597); assay: JAK Caliper Enzyme Assay at 1 mM ATP, TYK2
In short: (§1)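 Read-out is Caliper LabChip mobility-shift separation of phosphorylated from unphosphorylated fluorescent peptide after EDTA termination. Each JAK kinase domain (human, recombinant) runs at 1 mM ATP at room temperature, adjusted for 20–30% turnover. Inhibition is normalized to DMSO and positive-control wells and plotted against concentration.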

JAK1 = JAK1 (Homo sapiens (Human), UniProt P23458); assay: JAK Caliper Enzyme Assay at 1 mM ATP, JAK1
In short: (§2)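 Recombinant human kinase domains phosphorylated a fluorescent synthetic peptide at room temperature, with enzyme level and time tuned to 20% to 30% conversion; EDTA stop buffer ended reactions. Mobility-shift separation gave percent product from peak heights, normalised to DMSO and positive controls, and IC50s came from concentration–effect curves.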

JAK2 = JAK2 (Homo sapiens (Human), UniProt O60674); assay: JAK Caliper Enzyme Assay at 1 mM ATP, JAK2
In short: as §1

JAK3 = JAK3 (Homo sapiens (Human), UniProt P52333); assay: JAK Caliper Enzyme Assay at 1 mM ATP, JAK3
In short: as §2

JAK1, sequence (P23458 875-1153): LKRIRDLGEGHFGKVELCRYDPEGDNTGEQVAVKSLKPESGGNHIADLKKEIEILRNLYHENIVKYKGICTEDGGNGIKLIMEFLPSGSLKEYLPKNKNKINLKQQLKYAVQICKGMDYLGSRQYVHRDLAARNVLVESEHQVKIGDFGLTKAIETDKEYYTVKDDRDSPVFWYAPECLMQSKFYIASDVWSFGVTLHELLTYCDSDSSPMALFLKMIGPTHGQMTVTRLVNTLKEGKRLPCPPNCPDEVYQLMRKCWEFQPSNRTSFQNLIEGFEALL
JAK3, sequence (P52333 822-1111): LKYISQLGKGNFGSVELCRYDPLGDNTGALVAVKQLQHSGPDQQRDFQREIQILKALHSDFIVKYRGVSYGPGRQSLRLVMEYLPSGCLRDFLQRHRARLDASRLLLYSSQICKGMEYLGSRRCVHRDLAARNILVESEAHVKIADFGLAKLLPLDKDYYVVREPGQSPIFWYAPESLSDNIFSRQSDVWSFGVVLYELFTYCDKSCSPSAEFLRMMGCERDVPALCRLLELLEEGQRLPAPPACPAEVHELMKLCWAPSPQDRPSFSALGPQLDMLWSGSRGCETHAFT
JAK2, sequence (O60674 849-1124): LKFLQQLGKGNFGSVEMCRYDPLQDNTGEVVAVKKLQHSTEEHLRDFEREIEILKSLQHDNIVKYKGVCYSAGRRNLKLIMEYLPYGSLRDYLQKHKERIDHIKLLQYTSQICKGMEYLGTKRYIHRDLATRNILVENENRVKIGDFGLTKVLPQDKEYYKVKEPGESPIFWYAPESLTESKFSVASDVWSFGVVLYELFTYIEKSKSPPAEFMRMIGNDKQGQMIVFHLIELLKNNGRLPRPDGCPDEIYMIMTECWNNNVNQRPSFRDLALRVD
TYK2, sequence (P29597 897-1176): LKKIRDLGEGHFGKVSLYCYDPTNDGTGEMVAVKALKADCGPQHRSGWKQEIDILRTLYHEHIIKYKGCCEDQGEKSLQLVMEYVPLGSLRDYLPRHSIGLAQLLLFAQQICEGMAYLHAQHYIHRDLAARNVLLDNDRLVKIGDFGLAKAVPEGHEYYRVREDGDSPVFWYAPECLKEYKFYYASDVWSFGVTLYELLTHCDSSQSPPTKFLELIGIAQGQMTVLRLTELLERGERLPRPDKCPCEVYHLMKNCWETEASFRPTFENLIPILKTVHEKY

SMILES	IC50 (TYK2; JAK Caliper enzyme assay)	IC50 (JAK1; JAK Caliper enzyme assay)	IC50 (JAK2; JAK Caliper enzyme assay)	IC50 (JAK3; JAK Caliper enzyme assay)	IC50 (TYK2)	IC50 (JAK1)	IC50 (JAK2)	IC50 (JAK3)
N#CC[C@]1(n2ncc(-c3cc(-c4cc[nH]c(=O)c4)cc4ncccc34)n2)C[C@@H](C#N)C1 [Example 410, cis-3-(cyanomethyl)-3-{4-[7-(2-oxo-1,2-dihydropyridin-4-yl)quinolin-5-yl]-2H-1,2,3-triazol-2-yl}cyclobutanecarbonitrile]	39 nM	2340 nM	207 nM	> 10000 nM	–	–	–	–
N#CCC1(n2ncc(-c3cc(-c4ccc(C(N)=O)cn4)cc4ncccc34)n2)CC(C#N)C1 (stereo not drawn) [Example 352, 6-(5-{2-[cis-3-cyano-1-(cyanomethyl)cyclobutyl]-2H-1,2,3-triazol-4-yl}quinolin-7-yl)pyridine-3-carboxamide]	–	–	–	–	27 nM	825 nM	106 nM	> 10000 nM
Cc1cc(-c2cc3ncccc3c(-c3ccn([C@]4(CC#N)C[C@@](C)(C#N)C4)n3)n2)n[nH]1 [Example 46, trans-3-(cyanomethyl)-1-methyl-3-{3-[7-(5-methyl-1H-pyrazol-3-yl)-1,6-naphthyridin-5-yl]-1H-pyrazol-1-yl}cyclobutanecarbonitrile]	–	–	–	–	867 nM	9680 nM	2770 nM	> 10000 nM
Cn1cc(-c2cc(-c3cnn([C@]4(CC#N)C[C@@H](C#N)C4)n3)c3cccnc3c2)cn1 [Example 324, trans-3-(cyanomethyl)-3-{4-[7-(1-methyl-1H-pyrazol-4-yl)quinolin-5-yl]-2H-1,2,3-triazol-2-yl}cyclobutanecarbonitrile]	–	–	–	–	30 nM	1420 nM	144 nM	9930 nM
Cn1cc(-c2cc3nccnc3c(-c3ccn(C4(CC#N)CN(CC(F)(F)F)C4)n3)n2)cn1 [Example 482, [3-{3-[7-(1-methyl-1H-pyrazol-4-yl)pyrido[3,4-b]pyrazin-5-yl]-1H-pyrazol-1-yl}-1-(2,2,2-trifluoroethyl)azetidin-3-yl]acetonitrile]	3790 nM	> 10000 nM	> 10000 nM	> 10000 nM	–	–	–	–
CS(=O)(=O)N1CC(CC#N)(n2ccc(-c3cc(-c4ccc(=O)[nH]c4)cc4ncccc34)n2)C1 [Example 287, [1-(methylsulfonyl)-3-{3-[7-(6-oxo-1,6-dihydropyridin-3-yl)quinolin-5-yl]-1H-pyrazol-1-yl}azetidin-3-yl]acetonitrile]	–	–	–	–	201 nM	> 10000 nM	5380 nM	> 10000 nM
Cn1cc(-c2cc3nccnc3c(-c3ccn(C4(CC#N)CN(CC#N)C4)n3)n2)cn1 [Example 481]	1370 nM	> 10000 nM	3530 nM	> 10000 nM	–	–	–	–
Cn1nccc1-c1cc2ncccc2c(-c2ccn(C3(CC#N)CN(CC(F)(F)F)C3)n2)n1 [Example 54, [3-{3-[7-(1-methyl-1H-pyrazol-5-yl)-1,6-naphthyridin-5-yl]-1H-pyrazol-1-yl}-1-(2,2,2-trifluoroethyl)azetidin-3-yl]acetonitrile]	–	–	–	–	214 nM	2300 nM	2100 nM	> 10000 nM
N#CC[C@]1(n2cc(-c3cc(-c4cc[nH]n4)cc4nccn34)cn2)C[C@@H](C#N)C1 [Example 454, cis-3-(cyanomethyl)-3-{4-[7-(1H-pyrazol-3-yl)imidazo[1,2-a]pyridin-5-yl]-1H-pyrazol-1-yl}cyclobutanecarbonitrile]	36 nM	912 nM	468 nM	> 10000 nM	–	–	–	–
C[C@]1(C#N)C[C@@](CC#N)(n2ccc(-c3nc(-c4cn[nH]c4)cc4ncccc34)n2)C1 [Example 84, cis-3-(cyanomethyl)-1-methyl-3-{3-[7-(1H-pyrazol-4-yl)-1,6-naphthyridin-5-yl]-1H-pyrazol-1-yl}cyclobutanecarbonitrile]	–	–	–	–	22 nM	240 nM	174 nM	> 10000 nM
CS(=O)(=O)N1CC(CC#N)(n2ncc(-c3cc(-c4ccc(O)cc4)cc4ncccc34)n2)C1 [Example 439, [3-{4-[7-(4-hydroxyphenyl)quinolin-5-yl]-2H-1,2,3-triazol-2-yl}-1-(methylsulfonyl)azetidin-3-yl]acetonitrile]	30 nM	1210 nM	609 nM	> 10000 nM	–	–	–	–
Cc1nc(-c2cc(-c3cnn([C@]4(CC#N)C[C@@H](C#N)C4)n3)c3cccnc3c2)ccc1O [Example 382, trans-3-(cyanomethyl)-3-{4-[7-(5-hydroxy-6-methylpyridin-2-yl)quinolin-5-yl]-2H-1,2,3-triazol-2-yl}cyclobutanecarbonitrile]	141 nM	3060 nM	1020 nM	> 10000 nM	–	–	–	–
Cc1cc(-c2cc3ncccc3c(-c3ccn([C@]4(CC#N)C[C@H](C#N)C4)n3)n2)cc(N)n1 [Example 221, cis-3-{3-[7-(2-amino-6-methylpyridin-4-yl)-1,6-naphthyridin-5-yl]-1H-pyrazol-1-yl}-3-(cyanomethyl)cyclobutanecarbonitrile]	–	–	–	–	21 nM	230 nM	93 nM	6650 nM
Cc1cc(-c2nc(-c3cn[nH]c3)cc3ncccc23)nn1C1(CC#N)CN(S(C)(=O)=O)C1 [Example 272, [3-{5-methyl-3-[7-(1H-pyrazol-4-yl)-1,6-naphthyridin-5-yl]-1H-pyrazol-1-yl}-1-(methylsulfonyl)azetidin-3-yl]acetonitrile]	–	–	–	–	120 nM	3790 nM	1390 nM	> 10000 nM
N#CC[C@]1(n2ncc(-c3cc(-c4ccc(-c5nnn[nH]5)cc4)cc4ncccc34)n2)C[C@@H](C#N)C1 [Example 447, cis-3-(cyanomethyl)-3-(4-{7-[4-(1H-tetrazol-5-yl)phenyl]quinolin-5-yl}-2H-1,2,3-triazol-2-yl)cyclobutanecarbonitrile]	17 nM	180 nM	160 nM	9400 nM	–	–	–	–
N#CC[C@]1(n2ccc(-c3nc(-c4cnn(CCO)c4)cc4ncccc34)n2)C[C@@H](C#N)C1 [Example 127, cis-3-(cyanomethyl)-3-(3-{7-[1-(2-hydroxyethyl)-1H-pyrazol-4-yl]-1,6-naphthyridin-5-yl}-1H-pyrazol-1-yl)cyclobutanecarbonitrile]	–	–	–	–	17 nM	64 nM	20 nM	1050 nM
Cn1cc(-c2cc(-c3cnn(C4(CC#N)CN(CC#N)C4)c3)c3cccnc3c2)cn1 [Example 292, 2,2′-(3-{4-[7-(1-methyl-1H-pyrazol-4-yl)quinolin-5-yl]-1H-pyrazol-1-yl}azetidine-1,3-diyl)diacetonitrile]	–	–	–	–	36 nM	653 nM	71 nM	> 10000 nM
CS(=O)(=O)N1CC(CC#N)(n2ncc(-c3cc(-c4cccc(CN)c4)cc4ncccc34)n2)C1 [Example 427, [3-(4-{7-[3-(aminomethyl)phenyl]quinolin-5-yl}-2H-1,2,3-triazol-2-yl)-1-(methylsulfonyl)azetidin-3-yl]acetonitrile]	709 nM	> 10000 nM	3150 nM	> 10000 nM	–	–	–	–
N#CCC1(n2ccc(-c3nc(-c4ccncc4)cc4ncccc34)n2)CN(CC(F)(F)F)C1 [Example 172, [3-{3-[7-(pyridin-4-yl)-1,6-naphthyridin-5-yl]-1H-pyrazol-1-yl}-1-(2,2,2-trifluoroethyl)azetidin-3-yl]acetonitrile]	–	–	–	–	27 nM	608 nM	388 nM	> 10000 nM
CO[C@H]1C[C@@](CC#N)(n2ccc(-c3nc(-c4cc(CO)n[nH]4)cc4ncccc34)n2)C1 [Example 51, [cis-1-(3-{7-[3-(hydroxymethyl)-1H-pyrazol-5-yl]-1,6-naphthyridin-5-yl}-1H-pyrazol-1-yl)-3-methoxycyclobutyl]acetonitrile]	–	–	–	–	45 nM	1910 nM	509 nM	> 10000 nM
Cn1cc(-c2cc3ncccc3c(-c3ccn(C4(CC#N)CN(S(N)(=O)=O)C4)n3)n2)cn1 [Example 108, 3-(cyanomethyl)-3-{3-[7-(1-methyl-1H-pyrazol-4-yl)-1,6-naphthyridin-5-yl]-1H-pyrazol-1-yl}azetidine-1-sulfonamide]	–	–	–	–	16 nM	311 nM	50 nM	1590 nM
N#CC[C@]1(n2ccc(-c3nc(-c4ccnc(N)c4)cc4ncccc34)n2)C[C@@H](C#N)C1 [Example 198, cis-3-{3-[7-(2-aminopyridin-4-yl)-1,6-naphthyridin-5-yl]-1H-pyrazol-1-yl}-3-(cyanomethyl)cyclobutanecarbonitrile]	–	–	–	–	7 nM	39 nM	32 nM	1930 nM
Cn1cc(-c2cc(-c3cnn(C4(CC#N)CN(S(C)(=O)=O)C4)n3)c3cccnc3c2)ccc1=O [Example 412, [3-{4-[7-(1-methyl-6-oxo-1,6-dihydropyridin-3-yl)quinolin-5-yl]-2H-1,2,3-triazol-2-yl}-1-(methylsulfonyl)azetidin-3-yl]acetonitrile]	167 nM	3080 nM	1290 nM	> 10000 nM	–	–	–	–
Cc1cc(-c2cc3ncccc3c(-c3ccn([C@]4(CC#N)C[C@@H](C#N)C4)n3)n2)cc(N)n1 [Example 220, trans-3-{3-[7-(2-amino-6-methylpyridin-4-yl)-1,6-naphthyridin-5-yl]-1H-pyrazol-1-yl}-3-(cyanomethyl)cyclobutanecarbonitrile]	–	–	–	–	92 nM	2140 nM	768 nM	> 10000 nM
